Laboratory results: patent US5750530A, “Pharmaceutical diketopiperazine compounds” (Xenova Limited, priority 1994, dated 1998)
Structures can show the parent of a compound that is named as a salt. Where two headings read alike, the source gives them in different places.

Molecular target: PAI-1 (Homo sapiens, UniProt P05121)
Test: biochemical
Type: biochemical
Procedure: The present compounds have been tested in a PAI functional assay. In this assay, a compound is incubated with PAI-1 prior to addition to the tPA assay system. Inhibition of PAI-1 results in the production of plasmin from plasminogen. In turn, plasmin cleaves the chromogenic substrate S2251 (Kabi Vitrum) producing pNA (p-nitroaniline) which is detected spectrophotometrically at 405 nm (K. Nilsson et al, Fibrinolysis (1987) 1, 163-168).
The present compounds were tested in a PAI chromogenic substrate assay. In the assay (K. Nilsson, Fibrinolysis (1987) 1, 163-168) each compound was incubated with PAI-1 prior to addition to the tPA assay system. […] In turn, the plasmin cleaved the chromogenic substrate S2251 (Kabi-Vitrum) producing pNA (p-nitroaniline) which was detected spectrophotometrically at 405 nm.
The degrees of inhibition observed in the chromogenic substrate assay at various concentrations, or the IC50 values, for each compound are presented in Table 1.

[1] = PAI chromogenic substrate assay

Sequence of PAI-1 (P05121 24-402): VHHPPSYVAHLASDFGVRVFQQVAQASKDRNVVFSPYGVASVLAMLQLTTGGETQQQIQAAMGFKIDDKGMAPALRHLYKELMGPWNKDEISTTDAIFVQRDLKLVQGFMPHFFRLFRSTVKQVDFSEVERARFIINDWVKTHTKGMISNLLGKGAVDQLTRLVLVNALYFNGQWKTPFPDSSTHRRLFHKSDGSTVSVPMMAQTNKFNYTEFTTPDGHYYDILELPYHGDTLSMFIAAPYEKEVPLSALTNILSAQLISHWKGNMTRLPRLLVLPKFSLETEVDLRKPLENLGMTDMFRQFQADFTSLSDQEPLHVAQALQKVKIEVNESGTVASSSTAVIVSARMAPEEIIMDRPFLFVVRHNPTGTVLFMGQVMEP

| SMILES | % Inhibition (5 μm) | % Inhibition (20 μm) | % Inhibition (100 μm) | IC50 [1] | IC50 |
| --- | --- | --- | --- | --- | --- |
| CN(C)CCSc1ccc(/C=c2\[nH]c(=O)/c(=C/c3ccccc3)[nH]c2=O)cc1 [Compound 5128.HCl, (3Z,6Z)-6-Benzylidene-3-(4-(2-dimethylaminoethylthio)benzylidene)-2,5-piperazinedione] | 5% | 71% | 69% | 10 µM |  |
| CN(C)CCSc1ccc(/C=c2\[nH]c(=O)/c(=C/c3ccoc3)[nH]c2=O)cc1 [Compound 5129.HCl, (3Z,6Z)-6-(4-(2-Dimethylaminoethylthio)benzylidene)-3-(3-furylmethylene)-2,5-piperazinedione] | 51% | 68% | 50% | 4.5 µM |  |
| CN(C)CCSc1ccc(/C=c2\[nH]c(=O)/c(=C/c3ccccc3)[nH]c2=O)s1 [Compound 5131.HCl, (3Z,6Z)-6-Benzylidene-3-(5-(2-dimethylaminoethylthio)-2-thienyl)methylene-2,5-piperazinedione] |  | 65% | 56% | 5 µM |  |
| CN(C)CCSc1ccc(/C=c2\[nH]c(=O)/c(=C/c3ccsc3)[nH]c2=O)cc1 [Compound 5133.HCl, (3Z,6Z)-6-(4-(2-Dimethylaminoethylthio)benzylidene)-3-(3-thienylmethylene)-2,5-piperazinedione] |  | 66% | 24% | 3 µM |  |
| CN(C)CC[S+]([O-])c1ccc(/C=c2\[nH]c(=O)/c(=C/c3ccccc3)[nH]c2=O)cc1 (centres unmarked) [Compound 5141.HCl, (3Z,6Z)-6-Benzylidene-3-(4-(2-dimethylaminoethylsulphinyl)benzylidene)-2,5-piperazinedione] | 0% | 6% | 34% |  |  |
| CN(C)CCSc1ccc(/C=c2\[nH]c(=O)/c(=C/c3ccsc3)[nH]c2=O)s1 [Compound 5257, (3Z,6Z)-3-(5-(2-Dimethylaminoethylthio)-2-thienyl)methylene-6-(3-thienyl)methylene-2,5-piperazinedione] |  | 77% | 41% | 7 µM |  |
| CN(C)CCSc1ccc(/C=c2\[nH]c(=O)/c(=C/c3ccc4c(c3)OCO4)[nH]c2=O)s1 [Compound 5279, (3Z,6Z)-3-(5-(2-Dimethylaminoethylthio)-2-thienyl)methylene-6-(3,4-methylenedioxybenzylidene)-2,5-piperazinedione] |  | 64% | 68% |  | 20 µM |
| CN(C)CCSc1ccc(/C=c2\[nH]c(=O)/c(=C/c3ccc4c(c3)OCO4)[nH]c2=O)s1 [Compound 5279.HCl, (3Z,6Z)-3-(5-(2-Dimethylaminoethylthio)-2-thienyl)methylene-6-(3,4-methylenedioxybenzylidene)-2,5-piperazinedione] |  |  |  | 13 µM |  |
| CN(C)CCSc1ccc(/C=c2\[nH]c(=O)/c(=C/c3ccc(N(C)C)cc3)[nH]c2=O)s1 [Compound 5280, (3Z,6Z)-6-(4-Dimethylaminobenzylidene)-3-(5-(2-dimethylaminoethylthio)-2-thienyl)methylene-2,5-piperazinedione] |  | 82% | 99% | 20 µM |  |
| CN(C)CCSc1ccc(/C=c2\[nH]c(=O)/c(=C/c3ccc4ccccc4c3)[nH]c2=O)cc1 [Compound 5284, (3Z,6Z)-6-(4-(2-Dimethylaminoethylthio)benzylidene)-3-(2-naphthylmethylene)-2,5-piperazinedione] |  |  |  | 3 µM |  |
| CN(C)CCSc1ccc(/C=c2\[nH]c(=O)/c(=C/c3ccc4ccccc4c3)[nH]c2=O)s1 [Compound 5286, (3Z,6Z)-3-(5-(2-Dimethylaminoethylthio)-2-thienyl)methylene-6-(2-naphthyl)methylene-2,5-piperazinedione] |  | 87% | 98% | 8 µM |  |
| CN(C)CCSc1ccc(/C=c2\[nH]c(=O)/c(=C/c3ccc4ccccc4c3)[nH]c2=O)s1 [Compound 5286.HCl, (3Z,6Z)-3-(5-(2-Dimethylaminoethylthio)-2-thienyl)methylene-6-(2-naphthyl)methylene-2,5-piperazinedione] |  | 77% | 98% | 14 µM |  |
| CN(C)CCSc1ccc(/C=c2\[nH]c(=O)/c(=C/c3cccc(Cl)c3)[nH]c2=O)s1 [Compound 5291, (3Z,6Z)-6-(3-Chlorobenzylidene)-3-(5-(2-dimethylaminoethylthio)-2-thienyl)methylene-2,5-piperazinedione] |  |  |  | 20 µM |  |
| CN(C)CCSc1ccc(/C=c2\[nH]c(=O)/c(=C/c3cccc(Cl)c3)[nH]c2=O)cc1 [Compound 5292, (3Z,6Z)-3-(3-Chlorobenzylidene)-6-(4-(2-dimethylaminoethylthio)benzylidene)-2,5-piperazinedione] |  |  |  | 3 µM |  |
| CN(C)CCSc1ccc(/C=c2\[nH]c(=O)/c(=C/c3cccc(Cl)c3)[nH]c2=O)cc1 [Compound 5292.HCl, (3Z,6Z)-3-(3-Chlorobenzylidene)-6-(4-(2-dimethylaminoethylthio)benzylidene)-2,5-piperazinedione] |  |  |  | 2 µM |  |
| CN(C)CCSc1ccc(/C=c2\[nH]c(=O)/c(=C/c3ccc(C(F)(F)F)cc3)[nH]c2=O)s1 [Compound 5293, (3Z,6Z)-3-(5-(2-Dimethylaminoethylthio)-2-thienyl)methylene-6-(4-trifluoromethylbenzylidene)-2,5-piperazinedione] |  |  |  | 20 µM |  |
| CN(C)CCSc1ccc(/C=c2\[nH]c(=O)/c(=C/c3ccc(C(F)(F)F)cc3)[nH]c2=O)cc1 [Compound 5294, (3Z,6Z)-3-(4-(2-Dimethylaminoethylthio)benzylidene)-6-(4-trifluoromethylbenzylidene)-2,5-piperazinedione] |  |  |  | 2.5 µM |  |
| CN(C)CCSc1ccc(/C=c2\[nH]c(=O)/c(=C/c3ccc(C(F)(F)F)cc3)[nH]c2=O)cc1 [Compound 5294.HCl, (3Z,6Z)-3-(4-(2-Dimethylaminoethylthio)benzylidene)-6-(4-trifluoromethylbenzylidene)-2,5-piperazinedione] |  |  |  | 10 µM |  |
| CC(=O)Nc1ccc(/C=c2\[nH]c(=O)/c(=C/c3ccc(SCCN(C)C)s3)[nH]c2=O)cc1 [Compound 5300, (3Z,6Z)-6-(4-Acetamidobenzylidene)-3-(5-(2-dimethylaminoethylthio)-2-thienyl)methylene-2,5-piperazinedione] |  | 64% | 70% | 25 µM |  |
| CC(=O)Nc1ccc(/C=c2\[nH]c(=O)/c(=C/c3ccc(SCCN(C)C)s3)[nH]c2=O)cc1 [Compound 5300.HCl, (3Z,6Z)-6-(4-Acetamidobenzylidene)-3-(5-(2-dimethylaminoethylthio)-2-thienyl)methylene-2,5-piperazinedione] | 10% | 41% | 26% |  |  |
| CN(C)CCSc1ccc(/C=c2\[nH]c(=O)/c(=C/c3ccc4c(c3)Cc3ccccc3-4)[nH]c2=O)s1 [Compound 5301, (3Z,6Z)-3-(5-(2-Dimethylaminoethylthio)-2-thienyl)methylene-6-(2-fluorenylmethylene)-2,5-piperazinedione] |  | 65% | 107% | 20 µM |  |
| CN(C)CCSc1ccc(/C=c2\[nH]c(=O)/c(=C/c3ccnc4ccccc34)[nH]c2=O)s1 [Compound 5307, (3Z,6Z)-6-(5-(2-Dimethylaminoethylthio)-2-thienyl)methylene-3-(4-quinolylmethylene)-2,5-piperazinedione] |  | 83% | 88% | 8.5 µM |  |
| CN(C)CCSc1ccc(/C=c2\[nH]c(=O)/c(=C/c3ccnc4ccccc34)[nH]c2=O)s1 [Compound 5307.HCl, (3Z,6Z)-6-(5-(2-Dimethylaminoethylthio)-2-thienyl)methylene-3-(4-quinolylmethylene)-2,5-piperazinedione] |  |  |  | 18 µM |  |
| CN(C)CCSc1ccc(/C=c2\[nH]c(=O)/c(=C/c3ccc4ccccc4n3)[nH]c2=O)s1 [Compound 5308, (3Z,6Z)-6-(5-(2-Dimethylaminoethylthio)-2-thienyl)methylene-3-(2-quinolylmethylene)-2,5-piperazinedione] |  | 81% | 80% | 4.7 µM |  |
| CN(C)CCSc1ccc(/C=c2\[nH]c(=O)/c(=C/c3ccc4ccccc4n3)[nH]c2=O)s1 [Compound 5308.HCl, (3Z,6Z)-6-(5-(2-Dimethylaminoethylthio)-2-thienyl)methylene-3-(2-quinolylmethylene)-2,5-piperazinedione] |  | 93% | 93% | 4.5 µM |  |
| CN(C)CCSc1ccc(/C=c2\[nH]c(=O)/c(=C/c3ccc4c(c3)CCO4)[nH]c2=O)s1 [Compound 5311, (3Z,6Z)-3-(2,3-dihydro-5-benzofuranyl)methylene-6-(5-(2-dimethylaminoethylthio)-2-thienyl)methylene-2,5-piperazinedione] |  |  |  |  | 15 µM |
| CN(C)CCSc1ccc(/C=c2\[nH]c(=O)/c(=C/c3ccc4c(c3)CCO4)[nH]c2=O)s1 [Compound 5311.HCl, (3Z,6Z)-3-(2,3-dihydro-5-benzofuranyl)methylene-6-(5-(2-dimethylaminoethylthio)-2-thienyl)methylene-2,5-piperazinedione] |  |  |  | 20 µM |  |
| CN(C)CCSc1ccc(/C=c2\[nH]c(=O)/c(=C/c3ccccc3Br)[nH]c2=O)s1 [Compound 5313, (3Z,6Z)-6-(2-Bromobenzylidene)-3-(5-(2-dimethylaminoethylthio)-2-thienyl)methylene-2,5-piperazinedione] |  | 10% |  |  |  |
